Where a name gives a salt, the structure may show the parent alone.
The compounds below were run on HT29. Conditions: 72 h, relative to DMSO, 10 µM, Relative cell viability (%).
In short: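 Cells were exposed to drug for 72 h, then to WST-1 for 2 h at 37 °C, and absorbance was read at 450 nm as viability against DMSO treatment. In the screen, each compound was applied at 10 µM.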
With `COc1cc(Nc2ncc(F)c(Nc3ccc4c(n3)N(COP(=O)(O)O)C(=O)C(C)(C)O4)n2)cc(OC)c1OC` [Fostamatinib (R788)] the “Relative cell viability (%)” value was 28.64%.
`Cc1c(-c2ccc(O)cc2)n(Cc2ccc(OCCN3CCCCCC3)cc2)c2ccc(O)cc12` [Bazedoxifene Acetate] was tested, and the “Relative cell viability (%)” value was 88.41%.
In the case of `COc1cc(Nc2ncc(F)c(Nc3ccc4c(n3)N(COP(=O)(O)O)C(=O)C(C)(C)O4)n2)cc(OC)c1OC` [R788 (Fostamatinib) Disodium], the “Relative cell viability (%)” value is reported as 100.8%.
For `COc1cc2nc(N3CCN(C(=O)C4CCCO4)CC3)nc(N)c2cc1OC` (centres unmarked) [Terazosin HCl], the “Relative cell viability (%)” value was 142.1%.
For `O=C(O)Cc1ccccc1Nc1c(Cl)cccc1Cl` [Diclofenac Sodium], the “Relative cell viability (%)” value was 111.9%.

Same assay, conditions: 72 h, relative to DMSO; 10 µM
`CCOC(=O)[C@H](CCc1ccccc1)N[C@H]1CCCN2CCC[C@@H](C(=O)O)N2C1=O` [Cilazapril Monohydrate] was tested, and the “Relative cell viability (%)” value was 112%.
`O=C1CC[C@@]2(O)[C@H]3Cc4ccc(O)c5c4[C@@]2(CCN3CC2CC2)[C@H]1O5` [Naltrexone HCl] was tested, and the “Relative cell viability (%)” value was 104.3%.
`Cc1cccc(C)c1OCC(C)N` (centres unmarked) [Mexiletine HCl] was tested, and the “Relative cell viability (%)” value was 84.85%.
With `COc1cc(/C=C/C(=O)N2CCN(CC(=O)N3CCCC3)CC2)cc(OC)c1OC` [Cinepazide maleate] the “Relative cell viability (%)” value was 86.89%.
`CC(C(=O)O)c1ccc2c(c1)CC(=O)c1ccccc1S2` (centres unmarked) [Zaltoprofen] was tested, and the “Relative cell viability (%)” value was 88.35%.
`CN(C)CCC=C1c2ccccc2C=Cc2ccccc21` [Cyclobenzaprine HCl] was tested, and the “Relative cell viability (%)” value was 39.39%.
In the case of `COCCc1ccc(OCC(O)CNC(C)C)cc1` (centres unmarked) [Metoprolol Tartrate], the “Relative cell viability (%)” value is reported as 94.49%.
With `Cc1c(C(=O)NN2CCCCC2)nn(-c2ccc(Cl)cc2Cl)c1-c1ccc(Cl)cc1` [Rimonabant] the “Relative cell viability (%)” value was 79.61%.
With `COCCOC(=O)C1=C(C)NC(C)=C(C(=O)OC/C=C/c2ccccc2)C1c1cccc([N+](=O)[O-])c1` (centres unmarked) [Cilnidipine] the “Relative cell viability (%)” value was 69.63%.
For `CCCC(CCC)C(=O)O[C@H]1C[C@H]2CC[C@@H](C1)[N+]2(C)C` [Anisotropine Methylbromide], the “Relative cell viability (%)” value was 55.76%.
`O=C(CCCCCCNC(=O)c1cnc(N(c2ccccc2)c2ccccc2)nc1)NO` [Rocilinostat (ACY-1215)] was tested, and the “Relative cell viability (%)” value was 32.91%.
For `O=C(O)c1cc(=O)[nH]c(=O)[nH]1` [Orotic acid (6-Carboxyuracil)], the “Relative cell viability (%)” value was 101.4%.
In the case of `C[C@H]1O[C@@H](O[C@H]2[C@@H](O)C[C@H](O[C@H]3[C@@H](O)C[C@H](O[C@H]4CC[C@@]5(C)[C@H](CC[C@@H]6[C@@H]5C[C@@H](O)[C@]5(C)[C@@H](C7=CC(=O)OC7)CC[C@]65O)C4)O[C@@H]3C)O[C@@H]2C)C[C@H](O)[C@@H]1O` [Digoxin], the “Relative cell viability (%)” value is reported as 5.758%.
With `COc1c(N2CCNC(C)C2)c(F)cc2c(=O)c(C(=O)O)cn(C3CC3)c12` (centres unmarked) [Gatifloxacin] the “Relative cell viability (%)” value was 96.11%.
In the case of `C[C@@H]1C[C@H]2[C@@H]3CCC4=CC(=O)C=C[C@]4(C)[C@@]3(F)[C@@H](O)C[C@]2(C)[C@@]1(O)C(=O)CO` [Dexamethasone (DHAP)], the “Relative cell viability (%)” value is reported as 75.86%.
With `Cc1ccc(-n2nccn2)c(C(=O)N2CCN(c3nc4cc(Cl)ccc4o3)CC[C@H]2C)c1` [Suvorexant (MK-4305)] the “Relative cell viability (%)” value was 90.6%.
With `O=P1(NCCCl)OCCCN1CCCl` (centres unmarked) [Ifosfamide] the “Relative cell viability (%)” value was 92.99%.
`CC(=O)Oc1cc2c(s1)CCN(C(C(=O)C1CC1)c1ccccc1F)C2` (centres unmarked) [Prasugrel] was tested, and the “Relative cell viability (%)” value was 68.07%.
In the case of `Cc1c(N)nc([C@H](CC(N)=O)NC[C@H](N)C(N)=O)nc1C(=O)N[C@H](C(=O)N[C@H](C)[C@@H](O)[C@H](C)C(=O)N[C@H](C(=O)NCCc1nc(-c2nc(C(=O)NCCC[S+](C)C)cs2)cs1)[C@@H](C)O)[C@@H](O[C@@H]1O[C@@H](CO)[C@@H](O)[C@H](O)[C@@H]1O[C@H]1O[C@H](CO)[C@@H](O)[C@H](OC(N)=O)[C@@H]1O)c1c[nH]cn1` [Bleomycin Sulfate], the “Relative cell viability (%)” value is reported as 74.3%.
In the case of `COCCCOc1cc(C[C@@H](C[C@H](N)[C@@H](O)C[C@H](C(=O)NCC(C)(C)C(N)=O)C(C)C)C(C)C)ccc1OC` [Aliskiren Hemifumarate], the “Relative cell viability (%)” value is reported as 106.1%.
`CCN1CCN(C(=O)N[C@@H](C(=O)N[C@@H]2C(=O)N3[C@@H]2SC(C)(C)[C@@H]3C(=O)O)c2ccccc2)C(=O)C1=O` [Piperacillin Sodium] was tested, and the “Relative cell viability (%)” value was 73.94%.
For `CC(C)(Oc1ccc(C2CC2(Cl)Cl)cc1)C(=O)O` (centres unmarked) [Ciprofibrate], the “Relative cell viability (%)” value was 34.47%.
For `C#Cc1cccc(Nc2ncnc3cc(OCCOC)c(OCCOC)cc23)c1` [Erlotinib], the “Relative cell viability (%)” value was 79.06%.
`CN1CCN(c2nc(C3=C(c4c[nH]c5ccccc45)C(=O)NC3=O)c3ccccc3n2)CC1` [Sotrastaurin] was tested, and the “Relative cell viability (%)” value was 49.03%.
With `FC(F)(F)c1ccc(CNc2ccc(Cc3c[nH]c4ncc(Cl)cc34)cn2)cn1` [Pexidartinib (PLX3397)] the “Relative cell viability (%)” value was 54.7%.
In the case of `CC[C@@H]([C@H](C)O)n1ncn(-c2ccc(N3CCN(c4ccc(OC[C@@H]5CO[C@@](Cn6cncn6)(c6ccc(F)cc6F)C5)cc4)CC3)cc2)c1=O` [Posaconazole], the “Relative cell viability (%)” value is reported as 32.24%.
`COc1ccccc1OCCNCC(O)COc1cccc2[nH]c3ccccc3c12` (centres unmarked) [Carvedilol] was tested, and the “Relative cell viability (%)” value was 24.58%.
`CNC(=O)[C@H](Cc1c[nH]c2ccccc12)NC(=O)[C@@H](CC(=O)NO)CC(C)C` [Ilomastat (GM6001, Galardin)] was tested, and the “Relative cell viability (%)” value was 95.73%.
`CCC(=O)NCC[C@@H]1CCc2ccc3c(c21)CCO3` [Ramelteon] was tested, and the “Relative cell viability (%)” value was 64.95%.
In the case of `OC[C@H]1O[C@@H](c2ccc(Cl)c(Cc3ccc(O[C@H]4CCOC4)cc3)c2)[C@H](O)[C@@H](O)[C@@H]1O` [Empagliflozin (BI 10773)], the “Relative cell viability (%)” value is reported as 75.21%.
With `CCS(=O)(=O)N1CCN(c2ccc(Nc3ncc(C(N)=O)c(NC4CC4)n3)cc2)CC1` [Cerdulatinib (PRT062070, PRT2070)] the “Relative cell viability (%)” value was 36.75%.
For `Cc1ccc2c(Cl)cc(Cl)c(O)c2n1` [Chlorquinaldol], the “Relative cell viability (%)” value was 41.21%.
In the case of `CCCOc1ccc(C(=O)OCCN(CC)CC)cc1N` [Proparacaine HCl], the “Relative cell viability (%)” value is reported as 89.41%.
For `CCCc1cc(C(N)=S)ccn1` [Protionamide], the “Relative cell viability (%)” value was 123.7%.
For `COc1ccc(C(=O)CC(=O)c2ccc(C(C)(C)C)cc2)cc1` [Avobenzone], the “Relative cell viability (%)” value was 117.3%.
With `C[N+](C)(C)C[C@H](O)CC(=O)[O-]` [L-carnitine] the “Relative cell viability (%)” value was 116.1%.
In the case of `CC(C)C[C@H](NC(=O)[C@H](CCc1ccccc1)NC(=O)CN1CCOCC1)C(=O)N[C@@H](Cc1ccccc1)C(=O)N[C@@H](CC(C)C)C(=O)[C@@]1(C)CO1` [Carfilzomib (PR-171)], the “Relative cell viability (%)” value is reported as 15.53%.
For `CCN(CC)CCNC(=O)c1ccc(N)cc1` [Procainamide HCl], the “Relative cell viability (%)” value was 73.94%.
With `Nc1nc(N)nc(-c2cc(Cl)ccc2Cl)n1` [Irsogladine] the “Relative cell viability (%)” value was 176.5%.
For `Cc1ccc(C(=O)C(C)CN2CCCCC2)cc1` (centres unmarked) [Tolperisone HCl], the “Relative cell viability (%)” value was 89.39%.
With `C[C@@H](NCCCc1cccc(C(F)(F)F)c1)c1cccc2ccccc12` [Cinacalcet HCl] the “Relative cell viability (%)” value was 2.648%.
With `COc1ccc([C@H]2CNC(=O)C2)cc1OC1CCCC1` [S- (+)-Rolipram] the “Relative cell viability (%)” value was 107.3%.
`CC1Cc2ccccc2N1NC(=O)c1ccc(Cl)c(S(N)(=O)=O)c1` (centres unmarked) [Indapamide] was tested, and the “Relative cell viability (%)” value was 71.61%.
In the case of `O=C(O)c1ccc2c(c1)nc(Nc1cccc(Cl)c1)c1ccncc12` [CX-4945 (Silmitasertib)], the “Relative cell viability (%)” value is reported as 120.8%.
With `Nc1nc(O)c2ncn(COC(CO)CO)c2n1` [Ganciclovir] the “Relative cell viability (%)” value was 103.4%.
With `CCOC(=O)c1ccc(OC(=O)CCCCCNC(=N)N)cc1` [Gabexate Mesylate] the “Relative cell viability (%)” value was 124.4%.
For `CC[C@@]1(O)C(=O)OCc2c1cc1n(c2=O)Cc2cc3c(CN(C)C)c(O)ccc3nc2-1` [Topotecan HCl], the “Relative cell viability (%)” value was 16.67%.
In the case of `O=C(O)c1nn(Cc2ccc(Cl)cc2Cl)c2ccccc12` [Lonidamine], the “Relative cell viability (%)” value is reported as 47.57%.
For `COc1ccccc1OCC(O)CO` (centres unmarked) [Guaifenesin], the “Relative cell viability (%)” value was 74.15%.
In the case of `c1ccc(CN(CC2=NCCN2)c2ccccc2)cc1` [Antazoline HCl], the “Relative cell viability (%)” value is reported as 63.94%.
For `Fc1ccc([C@@H]2CCNC[C@H]2COc2ccc3c(c2)OCO3)cc1` [Paroxetine HCl], the “Relative cell viability (%)” value was 19.9%.
With `c1ccc(-c2ccc(C(c3ccccc3)n3ccnc3)cc2)cc1` (centres unmarked) [Bifonazole] the “Relative cell viability (%)” value was 88.14%.
`CCCCN1CCCCC1C(=O)Nc1c(C)cccc1C` (centres unmarked) [Bupivacaine HCl] was tested, and the “Relative cell viability (%)” value was 106.7%.
With `COC(=O)Nc1nc2ccc([S+]([O-])c3ccccc3)cc2[nH]1` (centres unmarked) [Oxfendazole] the “Relative cell viability (%)” value was 57.63%.
With `Cn1ncc(Cl)c1-c1cc(C(=O)N[C@H](CN)Cc2ccc(F)c(F)c2)oc1Cl` [Uprosertib (GSK2141795)] the “Relative cell viability (%)” value was 4.701%.
`C[N+](C)(C)CC(O)CC(=O)[O-]` (racemic) [DL-Carnitine HCl] was tested, and the “Relative cell viability (%)” value was 125.5%.
For `Cc1oncc1C(=O)Nc1ccc(C(F)(F)F)cc1` [Leflunomide], the “Relative cell viability (%)” value was 55.61%.
In the case of `CCOC(=O)[C@@H](N)Cc1ccc(-c2cc(O[C@H](c3ccc(Cl)cc3-n3ccc(C)n3)C(F)(F)F)nc(N)n2)cc1` [Telotristat Etiprate (LX 1606 Hippurate)], the “Relative cell viability (%)” value is reported as 86.05%.
In the case of `Cc1cncc(CN2CCC(=C3c4ccc(Cl)cc4CCc4cccnc43)CC2)c1` [Rupatadine Fumarate], the “Relative cell viability (%)” value is reported as 83.98%.
`C[C@H]1COc2c(N3CCN(C)CC3)c(F)cc3c(=O)c(C(=O)O)cn1c23` [Levofloxacin] was tested, and the “Relative cell viability (%)” value was 124%.
With `CN(C(=O)c1ccc(F)cc1C(F)(F)F)C1CCN(c2nnc(-c3ccnn3C)c3ccccc23)CC1` [Taladegib (LY2940680)] the “Relative cell viability (%)” value was 105.5%.
In the case of `CC#C[C@]1(O)CC[C@H]2[C@@H]3CCC4=CC(=O)CCC4=C3[C@@H](c3ccc(N(C)C)cc3)C[C@@]21C` [Mifepristone], the “Relative cell viability (%)” value is reported as 46.12%.
`O=C(O)c1ccccc1Nc1cccc(C(F)(F)F)c1` [Flufenamic acid] was tested, and the “Relative cell viability (%)” value was 80.303%.
